Assay results as given in patent publication US20060069132A1, “Azolecarboxamide herbicides” (priority 2004, published 2006).

Key:
ducksalad = test: Test B flooded paddy test; type: in vivo, Heteranthera limosa; conditions: 1000 g ai/ha, scale 0 to 100 (0 no effect, 100 complete control)
How it was run: (§1)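 After treating 2-leaf paddy plants or 2–18 cm postemergence plants (1 to 4 leaves) with formulated chemical, researchers kept them in a greenhouse for 13–15 days. Effects were judged visually versus controls: 0 indicates none, 100 total control.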

velvetleaf = test: Test B pre-/postemergence herbicide test; type: in vivo, Abutilon theophrasti
How it was run: (§2)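 Test chemicals in a non-phytotoxic solvent mixture with surfactant were applied preemergence to seeded species and postemergence to plants 2-18 cm tall (1- to 4-leaf stage); rice and barnyardgrass were also tested in a flooded paddy at the 2-leaf stage. Visual rating versus controls after 13-15 days in greenhouse, scale 0 (no effect) to 100 (complete control).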

morningglory = test: Test B pre-/postemergence herbicide test; type: in vivo, Ipomoea coccinea
How it was run: (§3)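 Flooded paddy rice and barnyardgrass were treated at the 2-leaf stage; upland plantings received compound either on sown seed or on 1- to 4-leaf seedlings. All were kept 13–15 days in a greenhouse and scored visually, 0–100, relative to untreated plants.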

giant foxtail = test: Test B pre-/postemergence herbicide test; type: in vivo, Setaria faberi
How it was run: as §2

corn = test: Test B pre-/postemergence herbicide test; type: in vivo, Zea mays
How it was run: as §2

lambsquarters = test: Test B pre-/postemergence herbicide test; type: in vivo, Chenopodium album
How it was run: as §2

[1] = tested on: small flower umbrella sedge; test: Test B flooded paddy test; type: in vivo, Cyperus difformis; conditions: 1000 g ai/ha, scale 0 to 100 (0 no effect, 100 complete control)
How it was run: as §1

large crabgrass = test: Test B pre-/postemergence herbicide test; type: in vivo, Digitaria sanguinalis
How it was run: as §2

blackgrass = test: Test B postemergence herbicide test; type: in vivo, Alopecurus myosuroides; conditions: for Plant response rating, Blackgrass: visual rating after 13 to 15 days
How it was run: as §1

Surinam grass = test: Test B pre-/postemergence herbicide test; type: in vivo, Urochloa decumbens
How it was run: as §2

wild oat = test: Test B postemergence herbicide test; type: in vivo, Avena fatua; conditions: for Plant response rating, Oat, Wild: visual rating after 13 to 15 days
How it was run: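 Visual ratings, 0 (no effect) to 100 (complete control), made versus controls after 13–15 d greenhouse. Paddy plants treated at 2-leaf stage; postemergence plants at 1- to 4-leaf stage, 2–18 cm tall.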

pigweed = test: Test B pre-/postemergence herbicide test; type: in vivo, Amaranthus retroflexus
How it was run: as §2

barnyardgrass = test: Test B pre-/postemergence herbicide test; type: in vivo, Echinochloa crus-galli
How it was run: as §3

cocklebur = test: Test B pre-/postemergence herbicide test; type: in vivo, Xanthium strumarium
How it was run: as §3

rice = test: Test B flooded paddy test; type: in vivo, Oryza sativa; conditions: 1000 g ai/ha, scale 0 to 100 (0 no effect, 100 complete control)
How it was run: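 Paddy species grown to the 2-leaf stage under flooding; blackgrass sprayed postemergence at 2–18 cm (1- to 4-leaf stage). Plants kept in a greenhouse for 13 to 15 days, then visually rated against controls on 0 (no effect) to 100 (complete control).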

[2] = 125 g ai/ha, 0 = no effect, 100 = complete control, preemergence
[3] = 500 g ai/ha, visual rating, 0 = no effect, 100 = complete control, preemergence
[4] = postemergence, 125 g ai/ha, visual rating, scale 0 (no effect) to 100 (complete control)
[5] = postemergence, 500 g ai/ha, scale 0 to 100, 0 is no effect, 100 is complete control
[6] = 125 g ai/ha, visual rating, scale 0 (no effect) to 100 (complete control), postemergence
[7] = Postemergence, 500 g ai/ha, visual rating after 13 to 15 days, scale 0 (no effect) to 100 (complete control)
[8] = Preemergence, 500 g ai/ha, scale 0 to 100
[9] = preemergence, 125 g ai/ha, 0 to 100 scale, 0 is no effect, 100 is complete control
[10] = Postemergence, 125 g ai/ha, scale 0 (no effect) to 100 (complete control)
[11] = Postemergence, 500 g ai/ha, scale 0 (no effect) to 100 (complete control)

CCNC(=O)c1ccc(F)c(NC(=O)C2CC(C(C)(C)C)=NN2CC)c1 (racemic) [Compound 269]
Ducksalad plant response rating (ducksalad): 80 | Velvetleaf plant response rating (0 to 100 scale) (velvetleaf; [2]): 60 | Plant response rating, Velvetleaf (velvetleaf; [3]): 100 | Velvetleaf plant response rating (velvetleaf; [4]): 10 | Velvetleaf plant response rating (velvetleaf; [5]): 20 | Morningglory plant response rating (0 to 100 scale) (morningglory; [2]): 10 | Plant response rating, Morningglory (morningglory; [3]): 20 | Morningglory plant response rating (morningglory; [4]): 20 | Morningglory plant response rating (morningglory; [5]): 40 | Foxtail, Giant plant response rating (0 to 100 scale) (giant foxtail; [2]): 80 | Plant response rating, Foxtail, Giant (giant foxtail; [3]): 100 | Foxtail, Giant plant response rating (giant foxtail; [4]): 30 | Foxtail, Giant plant response rating (giant foxtail; [5]): 30 | Corn plant response rating (0 to 100 scale) (corn; [2]): 60 | Plant response rating, Corn (corn; [3]): 80 | Corn plant response rating (corn; [4]): 10 | Corn plant response rating (corn; [5]): 30 | Lambsquarters plant response rating (0 to 100 scale) (lambsquarters; [2]): 100 | Plant response rating, Lambsquarters (lambsquarters; [3]): 100 | Lambsquarters plant response rating (lambsquarters; [4]): 50 | Lambsquarters plant response rating (lambsquarters; [5]): 70 | Sedge, Umbrella plant response rating [1]: 80 | Crabgrass, Large plant response rating (0 to 100 scale) (large crabgrass; [2]): 100 | Plant response rating, Crabgrass, Large (large crabgrass; [3]): 100 | Crabgrass, Large plant response rating (large crabgrass; [4]): 10 | Crabgrass, Large plant response rating (large crabgrass; [5]): 20 | Blackgrass plant response rating (blackgrass; [4]): 20 | Blackgrass plant response rating (blackgrass; [5]): 50 | Surinam Grass plant response rating (0 to 100 scale) (Surinam grass; [2]): 50 | Plant response rating, Surinam Grass (Surinam grass; [3]): 100 | Surinam Grass plant response rating (Surinam grass; [4]): 10 | Surinam Grass plant response rating (Surinam grass; [5]): 20 | Oat, Wild plant response rating (wild oat; [4]): 20 | Oat, Wild plant response rating (wild oat; [5]): 30 | Pigweed plant response rating (0 to 100 scale) (pigweed; [2]): 100 | Plant response rating, Pigweed (pigweed; [3]): 100 | Pigweed plant response rating (pigweed; [4]): 60 | Pigweed plant response rating (pigweed; [5]): 60 | Barnyardgrass plant response rating (0 to 100 scale) (barnyardgrass; [2]): 80 | Plant response rating, Barnyardgrass (barnyardgrass; [3]): 100 | Barnyardgrass plant response rating (barnyardgrass; [4]): 10 | Barnyardgrass plant response rating (barnyardgrass; [5]): 30 | Cocklebur plant response rating (0 to 100 scale) (cocklebur; [2]): 20 | Plant response rating, Cocklebur (cocklebur; [3]): 70 | Cocklebur plant response rating (cocklebur; [4]): 20 | Cocklebur plant response rating (cocklebur; [5]): 50 | Rice plant response rating (rice): 80

CCN1N=C(C(C)(C)C)CC1C(=O)Nc1cc(C(=O)N2CC=CC2)ccc1F (racemic) [Compound 310]
Ducksalad plant response rating (ducksalad): 90 | Velvetleaf plant response rating (velvetleaf; [6]): 20 | Plant response rating, Velvetleaf (velvetleaf; [3]): 100 | Velvetleaf plant response rating (velvetleaf; [5]): 50 | Morningglory plant response rating (0 to 100 scale) (morningglory; [2]): 0 | Morningglory plant response rating (morningglory; [6]): 0 | Plant response rating, Morningglory (morningglory; [3]): 10 | Morningglory plant response rating (morningglory; [5]): 50 | Foxtail, Giant plant response rating (0 to 100 scale) (giant foxtail; [2]): 50 | Foxtail, Giant plant response rating (giant foxtail; [6]): 10 | Plant response rating, Foxtail, Giant (giant foxtail; [3]): 100 | Foxtail, Giant plant response rating (giant foxtail; [5]): 40 | Corn plant response rating (0 to 100 scale) (corn; [2]): 40 | Corn plant response rating (corn; [6]): 0 | Plant response rating, Corn (corn; [3]): 70 | Corn plant response rating (corn; [5]): 20 | Lambsquarters plant response rating (0 to 100 scale) (lambsquarters; [2]): 100 | Lambsquarters plant response rating (lambsquarters; [6]): 60 | Plant response rating, Lambsquarters (lambsquarters; [3]): 100 | Lambsquarters plant response rating (lambsquarters; [5]): 80 | Sedge, Umbrella plant response rating [1]: 80 | Crabgrass, Large plant response rating (0 to 100 scale) (large crabgrass; [2]): 90 | Crabgrass, Large plant response rating (large crabgrass; [6]): 10 | Plant response rating, Crabgrass, Large (large crabgrass; [3]): 100 | Crabgrass, Large plant response rating (large crabgrass; [5]): 30 | Blackgrass plant response rating (blackgrass; [6]): 10 | Blackgrass plant response rating (blackgrass; [5]): 30 | Surinam Grass plant response rating (0 to 100 scale) (Surinam grass; [2]): 30 | Surinam Grass plant response rating (Surinam grass; [6]): 10 | Plant response rating, Surinam Grass (Surinam grass; [3]): 70 | Surinam Grass plant response rating (Surinam grass; [5]): 20 | Oat, Wild plant response rating (wild oat; [6]): 30 | Oat, Wild plant response rating (wild oat; [5]): 40 | Pigweed plant response rating (0 to 100 scale) (pigweed; [2]): 80 | Pigweed plant response rating (pigweed; [6]): 50 | Plant response rating, Pigweed (pigweed; [3]): 100 | Pigweed plant response rating (pigweed; [5]): 70 | Barnyardgrass plant response rating (0 to 100 scale) (barnyardgrass; [2]): 60 | Barnyardgrass plant response rating (barnyardgrass; [6]): 0 | Plant response rating, Barnyardgrass (barnyardgrass; [3]): 90 | Barnyardgrass plant response rating (barnyardgrass; [5]): 20 | Cocklebur plant response rating (0 to 100 scale) (cocklebur; [2]): 10 | Cocklebur plant response rating (cocklebur; [6]): 0 | Plant response rating, Cocklebur (cocklebur; [3]): 50 | Cocklebur plant response rating (cocklebur; [5]): 20 | Rice plant response rating (rice): 80

CCNC(=O)c1cccc(NC(=O)c2cc(C(C)(C)C)nn2CC(F)(F)F)c1 [Compound 31]
Ducksalad plant response rating (ducksalad; visual rating, 13 to 15 days): 80 | Plant response rating, Velvetleaf (velvetleaf; [7]): 50 | Velvetleaf plant response rating (velvetleaf; [8]): 90 | Plant response rating, Velvetleaf (velvetleaf; [9]): 80 | Morningglory plant response rating (morningglory; [10]): 30 | Plant response rating, Morningglory (morningglory; [7]): 70 | Morningglory plant response rating (morningglory; [8]): 80 | Foxtail, Giant plant response rating (giant foxtail; [10]): 20 | Plant response rating, Foxtail, Giant (giant foxtail; [7]): 30 | Foxtail, Giant plant response rating (giant foxtail; [8]): 90 | Plant response rating, Foxtail, Giant (giant foxtail; [9]): 60 | Corn plant response rating (corn; [10]): 30 | Plant response rating, Corn (corn; [7]): 30 | Corn plant response rating (corn; [8]): 20 | Lambsquarters plant response rating (lambsquarters; [10]): 90 | Plant response rating, Lambsquarters (lambsquarters; [7]): 90 | Lambsquarters plant response rating (lambsquarters; [8]): 100 | Plant response rating, Lambsquarters (lambsquarters; [9]): 90 | Sedge, Umbrella plant response rating ([1]; visual rating, 13 to 15 days): 50 | Crabgrass, Large plant response rating (large crabgrass; [10]): 20 | Plant response rating, Crabgrass, Large (large crabgrass; [7]): 30 | Crabgrass, Large plant response rating (large crabgrass; [8]): 50 | Blackgrass plant response rating (blackgrass; [10]): 0 | Plant response rating, Blackgrass (blackgrass; [11]): 50 | Plant response rating, Surinam Grass (Surinam grass; [7]): 60 | Surinam Grass plant response rating (Surinam grass; [8]): 60 | Plant response rating, Surinam Grass (Surinam grass; [9]): 30 | Oat, Wild plant response rating (wild oat; [10]): 20 | Plant response rating, Oat, Wild (wild oat; [11]): 30 | Plant response rating, Pigweed (pigweed; [7]): 90 | Pigweed plant response rating (pigweed; [8]): 100 | Plant response rating, Pigweed (pigweed; [9]): 70 | Barnyardgrass plant response rating (barnyardgrass; [10]): 10 | Plant response rating, Barnyardgrass (barnyardgrass; [7]): 50 | Barnyardgrass plant response rating (barnyardgrass; [8]): 90 | Cocklebur plant response rating (cocklebur; [10]): 80 | Plant response rating, Cocklebur (cocklebur; [7]): 90 | Cocklebur plant response rating (cocklebur; [8]): 40 | Rice plant response rating (rice; visual rating, 13 to 15 days): 80

C=Cn1nc(C(C)(C)C)cc1C(=O)Nc1cccc(C(=O)N(CC)CC)c1 [Compound 34]
Ducksalad plant response rating (ducksalad; visual rating, 13 to 15 days): 80 | Plant response rating, Velvetleaf (velvetleaf; [7]): 50 | Velvetleaf plant response rating (velvetleaf; [8]): 60 | Plant response rating, Velvetleaf (velvetleaf; [9]): 20 | Morningglory plant response rating (morningglory; [8]): 20 | Plant response rating, Morningglory (morningglory; [9]): 0 | Foxtail, Giant plant response rating (giant foxtail; [10]): 30 | Plant response rating, Foxtail, Giant (giant foxtail; [7]): 30 | Foxtail, Giant plant response rating (giant foxtail; [8]): 90 | Plant response rating, Foxtail, Giant (giant foxtail; [9]): 30 | Corn plant response rating (corn; [8]): 0 | Lambsquarters plant response rating (lambsquarters; [10]): 80 | Plant response rating, Lambsquarters (lambsquarters; [7]): 90 | Lambsquarters plant response rating (lambsquarters; [8]): 100 | Plant response rating, Lambsquarters (lambsquarters; [9]): 80 | Sedge, Umbrella plant response rating ([1]; visual rating, 13 to 15 days): 80 | Crabgrass, Large plant response rating (large crabgrass; [10]): 20 | Plant response rating, Crabgrass, Large (large crabgrass; [7]): 20 | Crabgrass, Large plant response rating (large crabgrass; [8]): 100 | Blackgrass plant response rating (blackgrass; [10]): 10 | Plant response rating, Blackgrass (blackgrass; [11]): 20 | Plant response rating, Surinam Grass (Surinam grass; [7]): 50 | Surinam Grass plant response rating (Surinam grass; [8]): 80 | Plant response rating, Surinam Grass (Surinam grass; [9]): 20 | Oat, Wild plant response rating (wild oat; [10]): 10 | Plant response rating, Oat, Wild (wild oat; [11]): 10 | Plant response rating, Pigweed (pigweed; [7]): 90 | Pigweed plant response rating (pigweed; [8]): 100 | Plant response rating, Pigweed (pigweed; [9]): 100 | Barnyardgrass plant response rating (barnyardgrass; [10]): 20 | Plant response rating, Barnyardgrass (barnyardgrass; [7]): 30 | Barnyardgrass plant response rating (barnyardgrass; [8]): 80 | Cocklebur plant response rating (cocklebur; [10]): 40 | Plant response rating, Cocklebur (cocklebur; [7]): 90 | Cocklebur plant response rating (cocklebur; [8]): 10 | Rice plant response rating (rice; visual rating, 13 to 15 days): 50
